Experimental data published in ChEMBL document CHEMBL1141023, “DNA gyrase (GyrB)/topoisomerase IV (ParE) inhibitors: synthesis and antibacterial activity” (Bioorg Med Chem Lett, 2009).
In brackets after ≈: the same amount, converted by molar mass.

system: Staphylococcus aureus; test: Antibacterial activity against Staphylococcus aureus ATCC 29213; type: functional

| SMILES | MIC |
| --- | --- |
| CCNC(=O)Nc1nc2cc(-c3cccnc3)cc(-c3cccc(C(C)=O)c3)n2n1 | > 256 µg/mL |
| CCNC(=O)Nc1nc2ccc(-c3cccnc3)cn2n1 | > 256 µg/mL |
| CCNC(=O)Nc1nc2cc(-c3cccnc3)cc(-c3cncnc3)n2n1 | > 256 µg/mL |
| CCNC(=O)Nc1nc2cc(-c3cccnc3)cc(-c3ccccc3O)n2n1 | > 256 µg/mL |
| CCNC(=O)Nc1nc2cc(-c3cccnc3)cc(-c3ccc(OC)cc3)n2n1 | > 128 µg/mL |
| CCNC(=O)Nc1nc2cc(-c3cccnc3)cc(-c3cnn(C)c3)n2n1 | 32 µg/mL (≈ 88.3 µM) |
| CCNC(=O)Nc1nc2cc(-c3cccnc3)cc(-c3cccc(NC(C)=O)c3)n2n1 | > 256 µg/mL |
| CCNC(=O)Nc1nc2cc(-c3cccnc3)cc(C(=O)N(C)C)n2n1 | 256 µg/mL (≈ 724 µM) |

system: Escherichia coli; test: Antibacterial activity against efflux pump mutant expressing Escherichia coli ATCC N43; type: functional

| SMILES | MIC |
| --- | --- |
| CCNC(=O)Nc1nc2cc(-c3cccnc3)cc(-c3cccc(C(C)=O)c3)n2n1 | > 256 µg/mL |
| CCNC(=O)Nc1nc2cc(-c3cccnc3)cc(-c3cncnc3)n2n1 | > 256 µg/mL |
| CCNC(=O)Nc1nc2cc(-c3cccnc3)cc(-c3ccccc3O)n2n1 | > 256 µg/mL |
| CCNC(=O)Nc1nc2cc(-c3cccnc3)cc(-c3ccc(OC)cc3)n2n1 | > 128 µg/mL |
| CCNC(=O)Nc1nc2cc(-c3cccnc3)cc(-c3cnn(C)c3)n2n1 | > 128 µg/mL |
| CCNC(=O)Nc1nc2cc(-c3cccnc3)cc(-c3cccc(NC(C)=O)c3)n2n1 | > 256 µg/mL |
| CCNC(=O)Nc1nc2cc(-c3cccnc3)cc(C(=O)N(C)C)n2n1 | 256 µg/mL (≈ 724 µM) |

system: not listed separately; test: Inhibition of Escherichia coli GyrB ATPase activity assessed as inorganic phosphate release by malachite green complex formation assay

| SMILES | IC50 |
| --- | --- |
| CCNC(=O)Nc1nc2cc(-c3cccnc3)cc(-c3cccc(C(C)=O)c3)n2n1 | 1.01 µM |
| CCNC(=O)Nc1nc2ccc(-c3cccnc3)cn2n1 | 9.64 µM |
| CCNC(=O)Nc1nc2cc(-c3cccnc3)cc(-c3cncnc3)n2n1 | 1.5 µM |
| CCNC(=O)Nc1nc2cc(-c3cccnc3)cc(-c3ccccc3O)n2n1 | 0.69 µM |
| CCNC(=O)Nc1nc2cc(-c3cccnc3)cc(-c3ccc(OC)cc3)n2n1 | 0.37 µM |
| CCNC(=O)Nc1nc2cc(-c3cccnc3)cc(-c3cnn(C)c3)n2n1 | 0.34 µM |
| CCNC(=O)Nc1nc2cc(-c3cccnc3)cc(-c3cccc(NC(C)=O)c3)n2n1 | 1.08 µM |
| CCNC(=O)Nc1nc2cc(-c3cccnc3)cc(C(=O)N(C)C)n2n1 | 3.2 µM |

system: Enterococcus faecalis; test: Antibacterial activity against Enterococcus faecalis ATCC 29212; type: functional

| SMILES | MIC |
| --- | --- |
| CCNC(=O)Nc1nc2cc(-c3cccnc3)cc(-c3cccc(C(C)=O)c3)n2n1 | > 256 µg/mL |
| CCNC(=O)Nc1nc2ccc(-c3cccnc3)cn2n1 | > 256 µg/mL |
| CCNC(=O)Nc1nc2cc(-c3cccnc3)cc(-c3cncnc3)n2n1 | > 256 µg/mL |
| CCNC(=O)Nc1nc2cc(-c3cccnc3)cc(-c3ccccc3O)n2n1 | > 256 µg/mL |
| CCNC(=O)Nc1nc2cc(-c3cccnc3)cc(-c3ccc(OC)cc3)n2n1 | > 128 µg/mL |
| CCNC(=O)Nc1nc2cc(-c3cccnc3)cc(-c3cnn(C)c3)n2n1 | 8 µg/mL (≈ 22.1 µM) |
| CCNC(=O)Nc1nc2cc(-c3cccnc3)cc(-c3cccc(NC(C)=O)c3)n2n1 | > 256 µg/mL |
| CCNC(=O)Nc1nc2cc(-c3cccnc3)cc(C(=O)N(C)C)n2n1 | 256 µg/mL (≈ 724 µM) |

system: Streptococcus pyogenes; test: Antibacterial activity against Streptococcus pyogenes ATCC 51339; type: functional

| SMILES | MIC |
| --- | --- |
| CCNC(=O)Nc1nc2cc(-c3cccnc3)cc(-c3cccc(C(C)=O)c3)n2n1 | > 256 µg/mL |
| CCNC(=O)Nc1nc2cc(-c3cccnc3)cc(-c3cncnc3)n2n1 | > 256 µg/mL |
| CCNC(=O)Nc1nc2cc(-c3cccnc3)cc(-c3ccccc3O)n2n1 | > 256 µg/mL |
| CCNC(=O)Nc1nc2cc(-c3cccnc3)cc(-c3ccc(OC)cc3)n2n1 | > 128 µg/mL |
| CCNC(=O)Nc1nc2cc(-c3cccnc3)cc(-c3cnn(C)c3)n2n1 | 32 µg/mL (≈ 88.3 µM) |
| CCNC(=O)Nc1nc2cc(-c3cccnc3)cc(-c3cccc(NC(C)=O)c3)n2n1 | > 256 µg/mL |
| CCNC(=O)Nc1nc2cc(-c3cccnc3)cc(C(=O)N(C)C)n2n1 | 256 µg/mL (≈ 724 µM) |
